Source: US20170267667A1, “[…] AS NON-NUCLEOSIDE REVERSE TRANSCRIPTASE INHIBITORS FOR ANTI-HIV-1 CHEMOTHERAPY” (Purdue Research Foundation, priority 2016, published 2017)

Assays:
[1] = biological target: HIV-1 reverse transcriptase (Human immunodeficiency virus type 1 group M subtype B, UniProt P04585); experiment: RT inhibition assay, incorporation of [32P]GTP into poly(rC)/oligo(dG) template primer; type: biochemical; details: poly(rC):oligo(dG) as the template primer; mean of at least two experiments; read-out: IC50 inhibitory activity versus HIV-1 reverse transcriptase
Experimental: RT Inhibition Assay. Inhibition of purified recombinant reverse transcriptase was measured by the incorporation of [^32P]GTP into poly(rC)/oligo(dG) homopolymer template primers, as previously described (Cushman, M., et al., J. Med. Chem. 1996, 39, 3217-3227).

[2] = tested on: HIV-1RF; experiment: XTT cytoprotection assay, HIV-1RF infection in CEM-SS cells; type: cell-based; details: for SI (CC50/EC50) CEM-SS cells: CC50/EC50 ratio, HIV-1RF in CEM-SS cells; for EC50: Human immunodeficiency virus 1, inhibition of cytopathicity of HIV-1RF in CEM-SS cells
Experimental: (§1) In Vitro Antiviral Assay. Evaluation of the antiviral activity of compounds against HIV- 1RF infection in CEM-SS cells was performed using the XTT cytoprotection assay, as previously described (Buckheit, R. W. Jr., et al., Antiviral Res. 1995, 26, 117-132). Evaluation of the antiviral activity of compounds against HIV-1IIIB and HIV-2ROD in MT-4 cells was performed using the MTT assay, as previously described (Rice, W. G. and Bader, J. P., Adv. Pharmacol. (San Diego) 1995, 33, 389-438).

[3] = tested on: HIV-1IIIB; experiment: MTT assay, HIV-1IIIB in MT-4 cells; type: cell-based; details: for SI (CC50/EC50) MT-4 cells: CC50/EC50 ratio, HIV-1IIIB in MT-4 cells; for EC50: Human immunodeficiency virus 1, MT4, inhibition of cytopathicity of HIV-1IIIB in MT-4 cells
Experimental: as §1

[4] = Cytotoxicity for mock-infected CEM-SS cells; type: cell-based; details: human
Experimental: as §1
(§2) Biological Results. The antiviral activities of the ADAMs were evaluated by determining their ability to inhibit the enzymatic activity of HIV-1 RT in vitro (IC50) and protect HIV-infected cells from the cytopathic effects (EC50) of two viral strains (HIV-1RF and HIV-1IIIB). The cytotoxicities (CC50) of the ADAMs were determined on CEM-SS cells and MT-4 cells.

[5] = Cytotoxicity for mock-infected MT-4 cells; type: cell-based; details: human
Experimental: as §1, §2

In the case of `CON=C(Cl)c1cc(/C(=C\CCCc2nnc(C)o2)c2ccc(C#N)cc2)cc(C)c1OC` [ADAM 23, 5-[(1Z)-1-(4-Cyanophenyl)-5-(5-methyl-1,3,4-oxadiazol-2-yl)pent-1-en-1-yl]-N,2-dimethoxy-3-methylbenzenecarboximidoyl Chloride], the IC50 [1] is reported as 32.5 µM, the “SI (CC50/EC50) CEM-SS cells” value [2] is reported as 7 and the EC50 [2] is reported as 2.6 µM. For the same compound, the “SI (CC50/EC50) MT-4 cells” value [3] was 8, the EC50 [3] was 3.64 µM and the CC50 [4] was 18.1 µM. The CC50 [5] was 30.2 µM.

For `CON=C(Cl)c1cc(/C(=C\CCCc2nc(C)no2)c2ccc(C#N)cc2)cc(C)c1OC` [ADAM 24, 5-[(1Z)-1-(4-Cyanophenyl)-5-(3-methyl-1,2,4-oxadiazol-5-yl)pent-1-en-1-yl]-N,2-dimethoxy-3-methylbenzenecarboximidoyl Chloride], the IC50 [1] was 0.1 µM, the “SI (CC50/EC50) CEM-SS cells” value [2] was 7 and the EC50 [2] was 2.52 µM. For the same compound, the “SI (CC50/EC50) MT-4 cells” value [3] was 35, the EC50 [3] was 2.75 µM and the CC50 [4] was 16.9 µM. It also gave a CC50 [5] of 97.5 µM.

In the case of `CON=C(Cl)c1cc(/C(=C\CCCN2CCOC2=O)c2ccc(C#N)cc2)cc(C)c1OC` [ADAM 25, 5-[(1Z)-1-(4-Cyanophenyl)-5-(2-oxo-1,3-oxazolidin-3-yl)pent-1-en-1-yl]-N,2-dimethoxy-3-methylbenzenecarboximidoyl Chloride], the IC50 [1] is reported as 42.1 µM, the EC50 [2] is reported as greater than 100 µM and the EC50 [3] is reported as greater than 6.48 µM. It also gave a CC50 [4] of 6.48 µM and a CC50 [5] of 6.48 µM.

With `CO/N=C(\Cl)CCC/C=C(\c1cc(C)c(OC)c(C(=O)SC)c1)c1cc(C)c2oc(=O)n(C)c2c1` [ADAM 26, S-Methyl 5-[(1E,6Z)-6-Chloro-1-(3,7-dimethyl-2-oxo-2,3-dihydro-1,3-benzoxazol-5-yl)-6-(methoxyimino)hex-1-en-1-yl]-2-methoxy-3-methylbenzenecarbothioate] the IC50 [1] was 3.4 µM, the “SI (CC50/EC50) CEM-SS cells” value [2] was greater than 23 and the EC50 [2] was less than 0.32 µM. The “SI (CC50/EC50) MT-4 cells” value [3] was 109, the EC50 [3] was 0.54 µM and the CC50 [4] was 7.45 µM. For the same compound, the CC50 [5] was 59 µM.

For `CO/N=C(\Cl)CCC/C=C(\c1cc(C)c(OC)c(C(=O)SC)c1)c1cc(C)c2onc(OC)c2c1` [ADAM 27, S-Methyl 5-[(1Z,6Z)-6-Chloro-6-(methoxyimino)-1-(3-methoxy-7-methyl-1,2-benzoxazol-5-yl)hex-1-en-1-yl]-2-methoxy-3-methylbenzenecarbothioate], the IC50 [1] was 36.4 µM, the “SI (CC50/EC50) CEM-SS cells” value [2] was 3 and the EC50 [2] was 2.42 µM. The “SI (CC50/EC50) MT-4 cells” value [3] was 5, the EC50 [3] was 3.27 µM and the CC50 [4] was 7.2 µM. It also gave a CC50 [5] of 16.3 µM.

In the case of `CO/N=C(\Cl)CCC/C=C(/c1cccc(C#N)c1)c1cc(C)c(OC)c(C(=O)SC)c1` [ADAM 28, S-Methyl 5-[(1Z,6Z)-6-Chloro-1-(3-cyanophenyl)-6-(methoxyimino)hex-1-en-1-yl]-2-methoxy-3-methylbenzenecarbothioate], the IC50 [1] is reported as 45.3 µM, the “SI (CC50/EC50) CEM-SS cells” value [2] is reported as 52 and the EC50 [2] is reported as 1.46 µM. For the same compound, the “SI (CC50/EC50) MT-4 cells” value [3] was 59, the EC50 [3] was 2.43 µM and the CC50 [4] was 75.5 µM. For the same compound, the CC50 [5] was 143 µM.

With `CO/N=C(\Cl)CCC/C=C(/c1ccc(C#N)cc1)c1cc(C)c(OC)c(C(=O)SC)c1` [ADAM 29, S-Methyl 5-[(1Z,6Z)-6-Chloro-1-(4-cyanophenyl)-6-(methoxyimino)hex-1-en-1-yl]-2-methoxy-3-methylbenzenecarbothioate] the IC50 [1] was 12 µM, the “SI (CC50/EC50) CEM-SS cells” value [2] was 25 and the EC50 [2] was 2.29 µM. For the same compound, the “SI (CC50/EC50) MT-4 cells” value [3] was 33, the EC50 [3] was 3.26 µM and the CC50 [4] was 56.5 µM. It also gave a CC50 [5] of 109 µM.
